Assay results: DBAASP
Values after ≈ are worked out from the molar mass of the structure shown.

Tests used:
Test in all cases: ≥ marks a high value that may be exact or a test limit, other limits are often not marked, values filed in µg/mL are converted to µM
[1] = system: Escherichia coli NCTC 10418
[2] = system: Candida albicans NCPF 1467
[3] = system: Staphylococcus aureus NCTC 10788
[4] = system: Pseudomonas aeruginosa CMCCB 10104
[5] = system: Staphylococcus aureus ATCC 25923
[6] = system: Candida albicans ATCC 2002
[7] = system: Escherichia coli ATCC 25922
[8] = system: Pseudomonas aeruginosa ATCC 27853
[9] = system: Escherichia coli DH5alpha
Bacillus subtilis = system: Bacillus subtilis

| SMILES | MIC [1] [µM] | MIC [2] [µM] | MIC [3] [µM] | MIC [4] [µM] | MIC [5] [µM] | MIC [6] [µM] | MIC [7] [µM] | MIC [8] [µM] | MIC [9] [µM] | MIC (Bacillus subtilis) [µM] |
| --- | --- | --- | --- | --- | --- | --- | --- | --- | --- | --- |
| CC[C@H](C)[C@H](NC(=O)[C@H](C)NC(=O)[C@@H]1CCCN1C(=O)[C@H](CCCN=C(N)N)NC(=O)[C@@H](N)CC(C)C)C(=O)N[C@@H](CC(C)C)C(=O)N[C@H](C(=O)N[C@@H](CCCN=C(N)N)C(=O)N[C@H](C(=O)N[C@@H](CCCCN)C(N)=O)[C@@H](C)O)C(C)C [LRPAILVRTK] | ≥ 439 | ≥ 439 | ≥ 439 | – | – | – | – | – | – | – |
| CC[C@H](C)[C@H](NC(=O)[C@H](CO)NC(=O)[C@H](CC(N)=O)NC(=O)[C@@H](NC(=O)[C@H](Cc1ccccc1)NC(=O)[C@H](C)NC(=O)[C@H](CO)NC(=O)[C@H](C)NC(=O)[C@H](Cc1ccccc1)NC(=O)[C@H](CC(=O)O)NC(=O)[C@H](CCCCN)NC(=O)[C@H](C)NC(=O)CNC(=O)[C@@H](NC(=O)[C@H](CCCCN)NC(=O)[C@H](CC(C)C)NC(=O)[C@H](CCCCN)NC(=O)[C@H](CCC(=O)O)NC(=O)[C@H](CC(C)C)NC(=O)[C@H](Cc1ccccc1)NC(=O)CN)[C@@H](C)O)C(C)C)C(=O)N[C@@H](CCCCN)C(=O)NCC(=O)N[C@H](C(=O)O)[C@@H](C)O [GFLEKLKTGAKDFASAFVNSIKGT] | ≥ 202 | ≥ 202 | ≥ 202 | – | – | – | – | – | – | – |
| CC[C@H](C)[C@H](NC(=O)[C@H](C)NC(=O)[C@@H](N)C(C)C)C(=O)N[C@@H](Cc1ccc(O)cc1)C(=O)NCC(=O)N[C@@H](CCCN=C(N)N)C(=O)N[C@@H](CC(=O)O)C(=O)N[C@@H](CC(=O)O)C(=O)N[C@@H](CCCN=C(N)N)C(=O)N[C@@H](CO)C(=O)N[C@@H](CC(=O)O)C(=O)N[C@H](C(=O)N[C@H]1CSSC[C@@H](C(=O)N[C@@H](CC(=O)O)C(=O)N[C@H](C(=O)N[C@@H](Cc2ccc(O)cc2)C(=O)O)[C@@H](C)O)NC(=O)[C@H](C(C)C)NC(=O)[C@H](CC(C)C)NC(=O)[C@H](Cc2c[nH]c3ccccc23)NC(=O)[C@H](CC(N)=O)NC(=O)[C@H](Cc2cnc[nH]2)NC(=O)[C@H](CCC(N)=O)NC(=O)[C@H](C(C)C)NC(=O)[C@H](CCC(N)=O)NC(=O)[C@H](CCCN=C(N)N)NC1=O)C(C)C [VAIYGRDDRSDVCRQVQHNWLVCDTY] | – | – | – | ≥ 64.3 | > 64.3 | ≥ 64.3 | > 64.3 | – | – | – |
| CC[C@H](C)[C@H](NC(=O)[C@H](Cc1cnc[nH]1)NC(=O)[C@@H]1CCCN1C(=O)[C@@H](NC(=O)[C@H](CC(C)C)NC(=O)[C@H](CO)NC(=O)[C@H](CC(C)C)NC(=O)[C@@H](N)Cc1ccccc1)[C@@H](C)CC)C(=O)N[C@H](C(=O)N[C@@H](CO)C(=O)NCC(=O)N[C@H](C(=O)N[C@@H](C)C(=O)N[C@@H](C)C(=O)N[C@@H](CC(C)C)C(=O)N[C@@H](C)C(=O)N[C@@H](CC(N)=O)C(=O)N[C@@H](Cc1cnc[nH]1)C(=O)N[C@@H](CC(C)C)C(N)=O)C(C)C)C(C)C [FLSLIPHIVSGVAALANHL] | ≥ 200 | ≥ 200 | ≥ 200 | – | – | – | – | – | – | – |
| CC[C@H](C)[C@H](NC(=O)[C@H](Cc1ccc(O)cc1)NC(=O)[C@H](CO)NC(=O)[C@H](CS)NC(=O)[C@H](Cc1ccccc1)NC(=O)[C@H](CC(C)C)NC(=O)[C@H](CC(N)=O)NC(=O)[C@H](CCC(=O)O)NC(=O)[C@H](CCSC)NC(=O)[C@H](CC(C)C)NC(=O)[C@@H](NC(=O)[C@@H](NC(=O)[C@H](CC(=O)O)NC(=O)[C@H](CCC(=O)O)NC(=O)[C@H](CCC(=O)O)NC(=O)[C@H](C)NC(=O)[C@H](CC(N)=O)NC(=O)[C@@H](N)CCC(=O)O)[C@@H](C)CC)C(C)C)C(=O)N[C@H](C(=O)NCC(=O)N[C@@H](CO)C(=O)N[C@@H](C)C(=O)N[C@@H](CC(=O)O)C(=O)N[C@@H](CO)C(=O)N[C@@H](Cc1ccccc1)C(=O)N[C@@H](Cc1c[nH]c2ccccc12)C(=O)N[C@H](C(=O)O)[C@@H](C)O)C(C)C [ENAEEDIVLMENLFCSYIVGSADSFWT] | – | – | – | ≥ 64.9 | > 64.9 | ≥ 64.9 | > 64.9 | – | – | – |
| CC[C@H](C)[C@H](NC(=O)[C@H](CC(C)C)NC(=O)[C@H](CCCCN)NC(=O)[C@H](CCCCN)NC(=O)[C@@H](NC(=O)[C@H](CC(C)C)NC(=O)[C@H](CCCCN)NC(=O)[C@@H]1CCCN1C(=O)[C@@H](NC(=O)[C@H](CCSC)NC(=O)CNC(=O)[C@H](CC(C)C)NC(=O)[C@@H](N)Cc1ccccc1)[C@@H](C)CC)[C@@H](C)CC)C(=O)N[C@@H](CCCCN)C(=O)N[C@@H](C)C(=O)N[C@@H](Cc1ccccc1)C(=O)N[C@@H](CCCCN)C(=O)O [FLGMIPKLIKKLIKAFK] | 5 (≈ 9.94 µg/mL) | 2.5 (≈ 4.97 µg/mL) | 5 (≈ 9.94 µg/mL) | – | – | – | – | – | – | – |
| CSCC[C@H](NC(=O)[C@H](CCCCN)NC(=O)[C@@H](NC(=O)[C@H](CCC(=O)O)NC(=O)[C@H](CCCCN)NC(=O)[C@H](CCCCN)NC(=O)[C@H](CCCCN)NC(=O)[C@H](CCCCN)NC(=O)[C@H](CC(C)C)NC(=O)[C@H](CCSC)NC(=O)[C@@H](N)CCC(=O)O)C(C)C)C(=O)N[C@@H](CCC(=O)O)C(=O)N[C@@H](CCCN=C(N)N)C(=O)N[C@@H](CCCCN)C(=O)N[C@H](C(=O)O)[C@@H](C)O [EMLKKKKEVKMERKT] | – | – | – | ≥ 105 | > 105 | ≥ 105 | > 105 | – | – | – |
| CC[C@H](C)[C@H](NC(=O)[C@H](CC(C)C)NC(=O)[C@H](CCC(N)=O)NC(=O)[C@@H](NC(=O)[C@H](C)NC(=O)CNC(=O)[C@H](CCCCN)NC(=O)[C@@H](NC(=O)[C@H](CC(C)C)NC(=O)[C@@H](NC(=O)[C@H](Cc1ccccc1)NC(=O)[C@@H](NC(=O)CN)C(C)C)[C@@H](C)O)[C@@H](C)CC)[C@@H](C)O)C(=O)NCC(=O)N[C@@H](CCCCN)C(=O)N[C@H](C(=O)N[C@@H](CC(C)C)C(=O)NCC(=O)N[C@@H](CCCCN)C(=O)N[C@@H](CCC(=O)O)C(=O)N[C@@H](CC(C)C)C(=O)NCC(=O)N[C@@H](CCCCN)C(=O)N[C@H](C(=O)NCC(=O)N[C@@H](CC(C)C)C(=O)N[C@@H](CCC(=O)O)C(=O)N[C@H](C(=O)N[C@@H](CCSC)C(=O)N[C@@H](C)C(=O)N[C@H]1CSSC[C@@H](C(=O)O)NC(=O)[C@H](CCC(N)=O)NC(=O)[C@H](CCCCN)NC(=O)[C@H]([C@@H](C)O)NC(=O)[C@H]([C@@H](C)CC)NC(=O)[C@H](CCCCN)NC1=O)[C@@H](C)CC)[C@@H](C)O)[C@@H](C)O [GVFTLIKGATQLIGKTLGKELGKTGLEIMACKITKQC] | – | – | – | 4.06 (≈ 15.8 µg/mL) | 4.06 (≈ 15.8 µg/mL) | 2.03 (≈ 7.9 µg/mL) | 4.06 (≈ 15.8 µg/mL) | – | – | – |
| CC[C@H](C)[C@H](NC(=O)[C@H](Cc1ccccc1)NC(=O)[C@@H](NC(=O)[C@H](Cc1ccccc1)NC(=O)[C@H](CCCN=C(N)N)NC(=O)[C@H](CCCCN)NC(=O)[C@H](CCCN=C(N)N)NC(=O)[C@H](CCCCN)NC(=O)[C@H](Cc1ccccc1)NC(=O)[C@H](CC(C)C)NC(=O)[C@@H](NC(=O)[C@@H](N)Cc1ccc(O)cc1)C(C)C)[C@@H](C)CC)C(=O)O [YVLFKRKRFIFI] | – | – | – | – | 200 (≈ 326 µg/mL) | – | – | > 200 | ≥ 50 | ≥ 200 |
| CC[C@H](C)[C@H](NC(=O)CNC(=O)[C@H](CS)NC(=O)[C@H](Cc1ccccc1)NC(=O)[C@H](CCCCN)NC(=O)[C@H](CCCN=C(N)N)NC(=O)[C@@H]1CCCN1C(=O)[C@H](CCCN=C(N)N)NC(=O)[C@H](CC(=O)O)NC(=O)[C@@H]1CCCN1C(=O)[C@H](C)N)C(=O)N[C@@H](CC(C)C)C(=O)NCC(=O)O [APDRPRKFCGILG] | – | – | – | ≥ 140 | > 140 | ≥ 140 | > 140 | – | – | – |
| CC[C@H](C)[C@H](NC(=O)[C@H](C)NC(=O)[C@H](C)NC(=O)[C@@H]1CCCN1C(=O)[C@@H](NC(=O)[C@H](CC(C)C)NC(=O)[C@H](CO)NC(=O)[C@H](CC(C)C)NC(=O)[C@@H](N)Cc1ccccc1)[C@@H](C)CC)C(=O)N[C@@H](CO)C(=O)N[C@@H](C)C(=O)N[C@H](C(=O)N[C@@H](CO)C(=O)N[C@@H](C)C(=O)N[C@@H](CC(C)C)C(=O)N[C@@H](C)C(=O)N[C@@H](CC(N)=O)C(=O)N[C@@H](Cc1cnc[nH]1)C(N)=O)C(C)C [FLSLIPAAISAVSALANH] | ≥ 264 | ≥ 132 | ≥ 33 | – | – | – | – | – | – | – |
| CC[C@H](C)[C@H](NC(=O)CN)C(=O)NCC(=O)NCC(=O)N[C@@H](C)C(=O)N[C@@H](CC(C)C)C(=O)N[C@@H](CC(C)C)C(=O)N[C@@H](CO)C(=O)N[C@@H](C)C(=O)NCC(=O)N[C@@H](CCCCN)C(=O)N[C@@H](C)C(=O)N[C@@H](C)C(=O)N[C@@H](CC(C)C)C(=O)N[C@@H](CCCCN)C(=O)NCC(=O)N[C@@H](CC(C)C)C(=O)N[C@@H](C)C(=O)N[C@@H](CCCCN)C(=O)NCC(=O)N[C@@H](CC(C)C)C(=O)N[C@@H](C)C(=O)N[C@@H](CCC(=O)O)C(=O)N[C@@H](Cc1cnc[nH]1)C(=O)N[C@@H](Cc1ccccc1)C(=O)N[C@@H](C)C(=O)N[C@@H](CC(N)=O)C(N)=O [GIGGALLSAGKAALKGLAKGLAEHFAN] | 12 (≈ 30.4 µg/mL) | 6 (≈ 15.2 µg/mL) | 3 (≈ 7.6 µg/mL) | – | – | – | – | – | – | – |
| CC[C@H](C)[C@H](NC(=O)[C@H](CC(N)=O)NC(=O)[C@H](Cc1ccccc1)NC(=O)[C@H](CCSC)NC(=O)[C@H](CC(N)=O)NC(=O)[C@@H](N)CCC(=O)O)C(=O)N[C@@H](CCCCN)C(=O)N[C@@H](CO)C(=O)N[C@@H](CO)C(=O)N[C@H](C(=O)N[C@@H](CCC(=O)O)C(=O)N[C@@H](CO)C(=O)N[C@@H](CC(=O)O)C(=O)N[C@@H](CO)C(=O)N[C@@H](Cc1ccccc1)C(=O)N[C@@H](Cc1c[nH]c2ccccc12)C(=O)NCC(=O)O)C(C)C [ENMFNIKSSVESDSFWG] | – | – | – | ≥ 101 | > 101 | ≥ 101 | > 101 | – | – | – |
